Consider 25 compounds from US8940742B2, “Heterocyclic compounds and uses thereof” (Infinity Pharmaceuticals, Inc., priority 2012, dated 2015).

Usually IC50 stands for the midpoint of a concentration-inhibition curve.

In test [1] the target is T1, PI3K α (Homo sapiens, UniProt P42336).
T1 construct: purchased Millipore
The experiment in a line: PI3-Kinase Promega ADP-Glo Max assay. The test is classed as biochemical. The conditions noted are these: 20 nM kinase, 3 mM ATP, 500 uM diC8-PtdInsP. In a few lines:
(§1)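 Human class I PI3K (20 nM α or δ, 40 nM β) pre-incubated 15 min with compound in HEPES pH 7.4 buffer with MgCl2, then reacted 2 h at room temperature with 3 mM ATP and 500 uM diC8-PtdInsP. ADP measured by ADP-Glo Max luminescence; % inhibition fitted to 4-parameter logistic for IC50.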
(ADP-Glo first removes unused ATP, then detects ADP through luciferase.)

Test [2] has as its target T2, PI3K β (Homo sapiens, UniProt P42338).
T2 construct: purchased Millipore
The experiment in a line: PI3-Kinase Promega ADP-Glo Max assay. The test is classed as biochemical. The conditions noted are these: 40 nM kinase, 3 mM ATP, 500 uM diC8-PtdInsP. In a few lines:
as §1

Test [3] has as its target T3, PI3K δ (Homo sapiens, UniProt O00329).
T3 construct: purchased Millipore
The experiment in a line: PI3-Kinase Promega ADP-Glo Max assay. The test is classed as biochemical. The conditions noted are these: 20 nM kinase, 3 mM ATP, 500 uM diC8-PtdInsP. In a few lines:
as §1

Test [4] deals with T4, PI3K γ (Homo sapiens, UniProt P48736).
T4 construct: purchased Millipore
The experiment in a line: PI3-Kinase Promega ADP-Glo Max assay. The conditions noted are these: 40 nM kinase, 3 mM ATP, 500 uM diC8-PtdInsP. The test is classed as biochemical. In a few lines: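 Human class I PI3K reactions ran 2 hours at room temperature, followed by stop solution (40 min) and detection mix (1 hour) before luminescence reading.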

Test [5] addresses T5, Raw264.7 p110 γ (Mus musculus, UniProt Q9JHG7).
T5 construct: reduction of phospho-AKT in stimulated RAW 264.7 cells; endogenous in cells; host or cells: RAW264.7 macrophages
The test can be described thus: Raw264.7 p110 γ cellular assay (phospho-AKT). The test is classed as cell-based. The conditions noted are these: serum-starved RAW264.7 cells stimulated with C5a. The source says: (b) PI3K-γ Selective Assay
Briefly, serum-starved PAW264.7 cells are stimulated with a known GPCR agonist C5a. […] Cells can be treated with test compounds prior to, simultaneously with, or subsequent to the stimulation by C5a. RAW 264.7 cells respond to the complement component fragment C5a through activation of the C5a receptor, and the C5a receptor activates macrophages and induces cell migration.

Test [6] deals with RAJI p110 δ (Homo sapiens, UniProt O00329). The experiment in a line: RAJI p110 δ cellular assay (phospho-AKT).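 Also: potency based on lowered phosphorylated AKT in RAJI cells, as a readout of PI3K-δ dependent B-cell receptor signaling.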
Chain of RAJI p110 δ (O00329 whole entry): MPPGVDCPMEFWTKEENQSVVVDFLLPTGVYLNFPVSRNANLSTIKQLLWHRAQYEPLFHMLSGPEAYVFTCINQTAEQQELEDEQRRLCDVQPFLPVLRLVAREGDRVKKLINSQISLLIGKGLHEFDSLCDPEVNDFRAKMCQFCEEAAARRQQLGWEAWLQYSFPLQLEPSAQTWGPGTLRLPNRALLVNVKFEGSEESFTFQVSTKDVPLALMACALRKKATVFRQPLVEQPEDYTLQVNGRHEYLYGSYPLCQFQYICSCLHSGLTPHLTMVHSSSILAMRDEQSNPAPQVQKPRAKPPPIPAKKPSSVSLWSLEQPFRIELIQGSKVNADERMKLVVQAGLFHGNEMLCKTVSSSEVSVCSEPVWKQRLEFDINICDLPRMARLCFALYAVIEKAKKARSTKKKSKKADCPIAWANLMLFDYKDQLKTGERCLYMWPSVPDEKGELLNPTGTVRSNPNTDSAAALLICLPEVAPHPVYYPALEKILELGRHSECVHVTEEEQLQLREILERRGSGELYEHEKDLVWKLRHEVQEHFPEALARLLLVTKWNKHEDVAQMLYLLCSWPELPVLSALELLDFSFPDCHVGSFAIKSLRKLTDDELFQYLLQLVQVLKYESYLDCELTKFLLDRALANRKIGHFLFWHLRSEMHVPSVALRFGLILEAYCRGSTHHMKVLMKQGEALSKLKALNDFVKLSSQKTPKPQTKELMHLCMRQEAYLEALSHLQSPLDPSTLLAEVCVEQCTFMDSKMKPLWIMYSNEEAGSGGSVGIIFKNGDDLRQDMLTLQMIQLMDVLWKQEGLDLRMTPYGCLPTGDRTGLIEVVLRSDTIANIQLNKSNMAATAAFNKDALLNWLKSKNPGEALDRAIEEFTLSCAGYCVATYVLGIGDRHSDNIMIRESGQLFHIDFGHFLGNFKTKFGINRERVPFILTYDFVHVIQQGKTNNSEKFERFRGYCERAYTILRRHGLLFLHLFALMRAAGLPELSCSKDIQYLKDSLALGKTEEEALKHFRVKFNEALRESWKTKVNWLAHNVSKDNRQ
Chain of RAJI p110 δ (P27986 whole entry partner): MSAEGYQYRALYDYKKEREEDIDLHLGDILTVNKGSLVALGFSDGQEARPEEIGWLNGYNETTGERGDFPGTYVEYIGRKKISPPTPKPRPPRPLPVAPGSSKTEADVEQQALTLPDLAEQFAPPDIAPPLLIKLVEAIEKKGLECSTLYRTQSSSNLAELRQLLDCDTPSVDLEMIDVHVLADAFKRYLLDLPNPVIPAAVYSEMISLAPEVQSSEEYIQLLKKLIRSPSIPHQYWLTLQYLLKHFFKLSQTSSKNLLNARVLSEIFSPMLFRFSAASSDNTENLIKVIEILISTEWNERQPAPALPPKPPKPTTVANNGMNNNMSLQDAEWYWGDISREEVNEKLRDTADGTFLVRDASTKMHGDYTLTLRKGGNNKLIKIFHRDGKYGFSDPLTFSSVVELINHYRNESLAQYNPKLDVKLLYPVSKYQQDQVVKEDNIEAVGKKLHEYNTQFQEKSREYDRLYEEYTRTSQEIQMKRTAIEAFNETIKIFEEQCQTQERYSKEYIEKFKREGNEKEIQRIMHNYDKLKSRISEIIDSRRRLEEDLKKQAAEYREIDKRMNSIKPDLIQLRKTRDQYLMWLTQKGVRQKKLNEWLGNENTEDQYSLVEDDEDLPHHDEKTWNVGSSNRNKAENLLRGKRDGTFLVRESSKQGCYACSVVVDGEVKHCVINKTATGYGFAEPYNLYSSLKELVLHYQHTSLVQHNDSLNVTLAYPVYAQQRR
From the text: (a) PI3K-δ Selective Assay
Reduction of phospho-AKT is indicative of compounds that may inhibit B-cell proliferation and function in certain diseases.

T1 sequence (P42336 whole entry): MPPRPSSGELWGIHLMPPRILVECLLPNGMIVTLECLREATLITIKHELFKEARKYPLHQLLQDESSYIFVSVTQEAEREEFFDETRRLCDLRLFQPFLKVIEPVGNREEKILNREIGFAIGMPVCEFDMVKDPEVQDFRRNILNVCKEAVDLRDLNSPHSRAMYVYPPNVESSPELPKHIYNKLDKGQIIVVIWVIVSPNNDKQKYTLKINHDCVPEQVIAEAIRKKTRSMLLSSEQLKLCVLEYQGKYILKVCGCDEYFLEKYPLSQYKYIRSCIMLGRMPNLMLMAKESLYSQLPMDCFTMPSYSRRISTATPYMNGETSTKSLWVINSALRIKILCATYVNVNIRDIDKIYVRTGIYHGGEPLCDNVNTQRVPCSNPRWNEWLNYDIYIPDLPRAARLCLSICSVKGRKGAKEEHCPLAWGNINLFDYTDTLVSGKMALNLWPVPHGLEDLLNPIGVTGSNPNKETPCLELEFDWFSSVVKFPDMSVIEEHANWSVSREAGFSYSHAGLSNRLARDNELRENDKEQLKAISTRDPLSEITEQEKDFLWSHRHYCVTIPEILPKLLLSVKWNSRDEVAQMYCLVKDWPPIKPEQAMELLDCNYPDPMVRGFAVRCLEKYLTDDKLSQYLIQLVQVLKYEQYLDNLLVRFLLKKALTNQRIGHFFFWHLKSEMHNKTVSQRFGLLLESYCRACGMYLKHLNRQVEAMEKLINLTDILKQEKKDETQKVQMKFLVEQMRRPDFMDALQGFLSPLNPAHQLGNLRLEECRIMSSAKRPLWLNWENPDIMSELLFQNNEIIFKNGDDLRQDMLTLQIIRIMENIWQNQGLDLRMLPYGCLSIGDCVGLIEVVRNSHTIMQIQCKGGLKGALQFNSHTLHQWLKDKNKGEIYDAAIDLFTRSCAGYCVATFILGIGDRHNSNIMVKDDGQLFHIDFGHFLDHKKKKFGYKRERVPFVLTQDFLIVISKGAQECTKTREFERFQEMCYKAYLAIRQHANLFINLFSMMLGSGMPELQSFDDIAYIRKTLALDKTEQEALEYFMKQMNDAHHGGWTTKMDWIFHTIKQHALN
T1 sequence (P27986 whole entry partner): as the sequence (P27986 whole entry partner) above
T3 sequence (O00329 whole entry): as the sequence (O00329 whole entry) above
T3 sequence (P27986 whole entry partner): as the sequence (P27986 whole entry partner) above
T2 sequence (P42338 whole entry): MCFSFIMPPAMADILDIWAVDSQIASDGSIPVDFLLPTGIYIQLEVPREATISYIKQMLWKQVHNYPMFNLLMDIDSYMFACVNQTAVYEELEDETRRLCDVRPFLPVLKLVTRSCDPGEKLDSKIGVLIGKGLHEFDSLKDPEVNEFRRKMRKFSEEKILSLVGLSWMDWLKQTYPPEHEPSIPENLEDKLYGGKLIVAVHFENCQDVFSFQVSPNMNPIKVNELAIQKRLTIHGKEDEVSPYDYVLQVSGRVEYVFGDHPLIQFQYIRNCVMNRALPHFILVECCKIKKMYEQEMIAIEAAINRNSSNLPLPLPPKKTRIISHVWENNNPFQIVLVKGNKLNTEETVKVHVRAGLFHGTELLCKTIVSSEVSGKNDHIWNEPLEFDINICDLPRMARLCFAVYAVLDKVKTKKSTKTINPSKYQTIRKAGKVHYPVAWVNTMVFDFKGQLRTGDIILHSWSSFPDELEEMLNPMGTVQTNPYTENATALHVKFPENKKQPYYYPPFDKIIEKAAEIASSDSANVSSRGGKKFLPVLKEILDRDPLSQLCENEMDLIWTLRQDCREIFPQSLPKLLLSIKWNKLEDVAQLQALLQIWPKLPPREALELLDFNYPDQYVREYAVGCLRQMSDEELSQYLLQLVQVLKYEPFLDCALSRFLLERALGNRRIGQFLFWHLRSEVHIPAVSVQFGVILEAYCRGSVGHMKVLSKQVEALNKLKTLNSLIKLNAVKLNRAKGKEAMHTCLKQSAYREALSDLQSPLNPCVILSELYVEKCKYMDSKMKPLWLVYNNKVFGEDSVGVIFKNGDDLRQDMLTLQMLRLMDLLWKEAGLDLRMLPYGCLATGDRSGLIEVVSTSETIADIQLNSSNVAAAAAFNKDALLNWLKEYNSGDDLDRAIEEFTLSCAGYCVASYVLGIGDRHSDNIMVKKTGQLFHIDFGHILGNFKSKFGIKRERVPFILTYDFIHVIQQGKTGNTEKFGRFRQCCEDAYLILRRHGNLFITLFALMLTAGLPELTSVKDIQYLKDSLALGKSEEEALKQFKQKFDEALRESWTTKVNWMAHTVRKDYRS
T2 sequence (P27986 whole entry partner): as the sequence (P27986 whole entry partner) above

For the compound `COc1ccc(-c2cnc(N)c(C(=O)N[C@@H](C)c3cc4cccc(Cl)c4c(=O)n3-c3ccccc3)n2)cc1OC` [Compound 93], the IC50 in test [1] was 1000 to 10000 nM; in test [2], 1000 to 10000 nM; in test [3] it was 1000 to 10000 nM; in test [4], 100 to 1000 nM; in test [5], < 100 nM; in test [6], 100 to 1000 nM.

For `CC(=O)Nc1ccc(-c2cccc3cc([C@H](C)NC(=O)c4c(N)nn5cccnc45)n(-c4ccccc4)c(=O)c23)cc1` [Compound 203], the IC50 in test [1] is 1000 to 10000 nM; in test [2], > 10000 nM; in test [3] it was 1000 to 10000 nM; in test [4] it was 100 to 1000 nM; in test [5], < 100 nM; in test [6], < 100 nM.

Take `C[C@H](NC(=O)c1c(N)nn2cccnc12)c1cc2cccc(C=O)c2c(=O)n1-c1ccccc1` [Compound 201]: the IC50 is > 10000 nM in test [1]; 1000 to 10000 nM in test [2]; 1000 to 10000 nM in test [3]; 1000 to 10000 nM in test [4]; < 100 nM in test [5]; 100 to 1000 nM in test [6].

Turning to `C[C@H](NC(=O)c1nc(-c2cccc(S(=O)(=O)N3CCCC3)c2)cnc1N)c1cc2cccc(Cl)c2c(=O)n1-c1ccccc1` [Compound 92], the IC50 in test [1] is > 10000 nM; in test [2], 1000 to 10000 nM; in test [3], 1000 to 10000 nM; in test [4], 1000 to 10000 nM; in test [5], 1000 to 10000 nM; in test [6] it was 1000 to 10000 nM.

Take `C[C@H](NC(=O)c1c(N)nn2cccnc12)c1cc2ccccc2c(=O)n1-c1ccccc1` [Compound 133]: the IC50 in test [1] is > 10000 nM; in test [2] it was 1000 to 10000 nM; in test [3] it was 1000 to 10000 nM; in test [4], 100 to 1000 nM; in test [5], < 100 nM; in test [6], 100 to 1000 nM.

Turning to `C=CCn1c([C@H](C)NC(=O)c2c(N)nn3cccnc23)cc2cccc(Cl)c2c1=O` [Compound 235], the IC50 in test [1] is 1000 to 10000 nM; in test [2], < 100 nM; in test [3], 100 to 1000 nM; in test [4], 100 to 1000 nM; in test [5] it was < 100 nM; in test [6], < 100 nM.

`C[C@H](NC(=O)c1c(N)nn2cccnc12)c1cc2scc(-c3cnn(C)c3)c2c(=O)n1-c1ccccc1` [Compound 209]: the IC50 in test [1] was > 10000 nM; in test [2] it was > 10000 nM; in test [3], > 10000 nM; in test [4], 1000 to 10000 nM; in test [5] it was 100 to 1000 nM; in test [6], 1000 to 10000 nM.

On to `C[C@H](NC(=O)c1c(N)nn2cccnc12)c1cc2cccc(-c3cccnc3)c2c(=O)n1-c1ccccc1` [Compound 118], for which the IC50 is 1000 to 10000 nM in test [1]; > 10000 nM in test [2]; 100 to 1000 nM in test [3]; 100 to 1000 nM in test [4]; < 100 nM in test [5]; < 100 nM in test [6].

Take `C[C@H](NC(=O)c1nc(-c2ccc(NS(C)(=O)=O)cc2)cnc1N)c1cc2cccc(Cl)c2c(=O)n1-c1ccccc1` [Compound 103]: the IC50 was > 10000 nM in test [1]; > 10000 nM in test [2]; > 10000 nM in test [3]; 1000 to 10000 nM in test [4]; 100 to 1000 nM in test [5]; 1000 to 10000 nM in test [6].

As to `C[C@H](NC(=O)c1nccnc1N)c1cc2cccc(Cl)c2c(=O)n1-c1ccc(F)cc1` [Compound 19], the IC50 in test [1] was > 10000 nM; in test [2], 100 to 1000 nM; in test [3] it was 100 to 1000 nM; in test [4] it was 100 to 1000 nM; in test [5], < 100 nM; in test [6] it was < 100 nM.

Consider `C[C@H](NC(=O)c1c(N)nn2cccnc12)c1cc2cccc(C#CCNC(=O)C3CCCCC3)c2c(=O)n1-c1ccccc1` [Compound 159], for which the IC50 was 1000 to 10000 nM in test [1]; 1000 to 10000 nM in test [2]; 1000 to 10000 nM in test [3]; 100 to 1000 nM in test [4]; < 100 nM in test [5]; < 100 nM in test [6].

Regarding `C[C@H](NC(=O)c1nc(-c2cccc(S(=O)(=O)N(C)C)c2)cnc1N)c1cc2cccc(Cl)c2c(=O)n1-c1ccccc1` [Compound 91], the IC50 in test [1] was > 10000 nM; in test [2], 1000 to 10000 nM; in test [3], 1000 to 10000 nM; in test [4] it was 1000 to 10000 nM; in test [5], 100 to 1000 nM; in test [6] it was 100 to 1000 nM.

Turning to `C[C@H](NC(=O)c1c(N)nn2cccnc12)c1cc2sccc2c(=O)n1-c1ccccc1` [Compound 225], the IC50 in test [1] is > 10000 nM; in test [2], 1000 to 10000 nM; in test [3], 1000 to 10000 nM; in test [4] it was 1000 to 10000 nM; in test [5] it was 100 to 1000 nM; in test [6] it was 100 to 1000 nM.

Regarding `C[C@H](NC(=O)c1nc(-c2cccc(NS(C)(=O)=O)c2)cnc1N)c1cc2cccc(Cl)c2c(=O)n1C1CC1` [Compound 171], the IC50 was 1000 to 10000 nM in test [1]; 100 to 1000 nM in test [2]; 1000 to 10000 nM in test [3]; < 100 nM in test [4]; < 100 nM in test [5]; < 100 nM in test [6].

Turning to `C[C@H](NC(=O)c1c(N)nn2cccnc12)c1cc2cccc(Cl)c2c(=O)n1C` [Compound 74], the IC50 in test [1] is 1000 to 10000 nM; in test [2], < 100 nM; in test [3], 100 to 1000 nM; in test [4] it was 100 to 1000 nM; in test [5] it was < 100 nM; in test [6], < 100 nM.

`Cc1cccc2cc([C@H](C)NC(=O)c3c(N)nn4cccnc34)n(-c3ccccc3)c(=O)c12` [Compound 123]: the IC50 in test [1] was 1000 to 10000 nM; in test [2] it was 1000 to 10000 nM; in test [3], 1000 to 10000 nM; in test [4], 100 to 1000 nM; in test [5] it was < 100 nM; in test [6], < 100 nM.

On to `C[C@H](NC(=O)c1c(N)nn2cccnc12)c1cc2cccc(-c3cnn(C)c3)c2c(=O)n1-c1ccccc1` [Compound 222], for which the concentration for half-maximal inhibition (IC50) in test [1] is > 10000 nM; in test [2], > 10000 nM; in test [3], 1000 to 10000 nM; in test [4], 100 to 1000 nM; in test [5], < 100 nM; in test [6] it was < 100 nM.

On to `CC(C)Oc1cc(-c2cccc3nc([C@H](C)NC(=O)c4c(N)nn5cccnc45)n(-c4ccccc4)c(=O)c23)ccn1` [Compound 145], for which the IC50 in test [1] was > 10000 nM; in test [2] it was 1000 to 10000 nM; in test [3], 1000 to 10000 nM; in test [4] it was 1000 to 10000 nM; in test [5], < 100 nM; in test [6] it was < 100 nM.

In the case of `C[C@H](NC(=O)c1c(N)nn2ccc(-c3cccc(S(C)(=O)=O)c3)nc12)c1cc2cccc(Cl)c2c(=O)n1-c1ccccc1` [Compound 127], the IC50 in test [1], in test [2], in test [3], in test [4], in test [5] and in test [6] was < 100 nM each time.

As to `C[C@H](NC(=O)c1nc(-c2cccc(S(N)(=O)=O)c2)cnc1N)c1cc2cccc(Cl)c2c(=O)n1-c1ccccc1` [Compound 108], the IC50 was 1000 to 10000 nM in test [1]; 100 to 1000 nM in test [2]; 1000 to 10000 nM in test [3]; 100 to 1000 nM in test [4]; < 100 nM in test [5]; 100 to 1000 nM in test [6].

In the case of `C[C@H](NC(=O)c1nc(-c2csc(S(C)(=O)=O)n2)cnc1N)c1cc2cccc(Cl)c2c(=O)n1-c1ccccc1` [Compound 113], the IC50 in test [1] was > 10000 nM; in test [2] it was 1000 to 10000 nM; in test [3], > 10000 nM; in test [4], 1000 to 10000 nM; in test [5], 100 to 1000 nM; in test [6], 1000 to 10000 nM.

For `C[C@H](NC(=O)c1cnn2cccnc12)c1cc2cccc(Cl)c2c(=O)n1-c1ccc(F)cc1` [Compound 62], the IC50 was 1000 to 10000 nM in test [1]; 1000 to 10000 nM in test [2]; 1000 to 10000 nM in test [3]; 100 to 1000 nM in test [4]; 100 to 1000 nM in test [5]; 100 to 1000 nM in test [6].

For `CC(C)Oc1cc(-c2cccc3cc([C@H](C)NC(=O)c4c(N)nn5cccnc45)n(-c4ccccc4)c(=O)c23)ccn1` [Compound 138], the IC50 in test [1] is > 10000 nM; in test [2], 1000 to 10000 nM; in test [3], 1000 to 10000 nM; in test [4], 100 to 1000 nM; in test [5], < 100 nM; in test [6], < 100 nM.

As to `C[C@H](NC(=O)c1c(N)nn2cccnc12)c1c(Br)c2cccc(Cl)c2c(=O)n1-c1ccccc1` [Compound 254], the IC50 in test [1] was 1000 to 10000 nM; in test [2], 1000 to 10000 nM; in test [3], 100 to 1000 nM; in test [4] it was < 100 nM; in test [5] it was < 100 nM; in test [6] it was < 100 nM.

For the compound `COc1cccc2cc([C@H](C)NC(=O)c3c(N)nn4cccnc34)n(-c3ccccc3)c(=O)c12` [Compound 270], the IC50 is > 10000 nM in test [1]; > 10000 nM in test [2]; 1000 to 10000 nM in test [3]; 1000 to 10000 nM in test [4]; 100 to 1000 nM in test [5]; 100 to 1000 nM in test [6].
